US10227344B2, “CK2 inhibitors, compositions and methods thereof” (Polaris Pharmaceuticals, Inc., priority 2016, dated 2019)
Counter-ions that a name gives are not always drawn.

Tests used:
[1] = target: purified CK2α enzyme (Homo sapiens, UniProt P68400); test: CK2 Protein Kinase Inhibition Assay (coupled PK/LDH assay); format: biochemical; settings: CK2 enzyme 25 nM, 100 μM ATP, 37° C., Morrison equation
Experimental: A coupled PK (pyruvate kinase)/LDH (lactate dehydrogenase) assay was used to measure compounds' ability to inhibit purified CK2α enzyme.
The ADP product of kinase CK2a is the cofactor for PK. Phospho(enol)pyruvate (PEP) PEP is metabolized by pyruvate kinase to yield pyruvate, which is the substrate for LDH.
Serially diluted compounds were pre-incubated for 10 min at 37° C. with and 1.5 mM […] peptide substrate, 6 U/ml PK and 10 U/ml LDH (purchased from Sigma-Aldrich), 100 μM ATP, 1.2 mM NADH, 4 mM PEP in the reaction buffer (50 mM Tris (pH 8.25), 0.1 M NaCl, 10 mM magnesium acetate). The reaction was initiated by the addition of an equal volume of purified CK2 enzyme (final concentration 25 nM) diluted in the reaction buffer. Absorbance at 340 nm was measured overtime (for 30 min) at 37° C.; as NADH was converted to NAD+ the absorbance decreases. Absorbance decrease rate (per min) was plotted against the compound concentration and Ki is determined by GraphPad Prism using Morrison equation. All data points were performed in triplicate and each compound was tested in at least two separate experiments.
To this end, K, values of less than 2.5 nM are labelled as “+++”, from 2.5 nM to 10 nM are labelled as “++”, and greater than 10 nM are labelled as “+”.

Sequence of purified CK2α enzyme (P68400 whole entry): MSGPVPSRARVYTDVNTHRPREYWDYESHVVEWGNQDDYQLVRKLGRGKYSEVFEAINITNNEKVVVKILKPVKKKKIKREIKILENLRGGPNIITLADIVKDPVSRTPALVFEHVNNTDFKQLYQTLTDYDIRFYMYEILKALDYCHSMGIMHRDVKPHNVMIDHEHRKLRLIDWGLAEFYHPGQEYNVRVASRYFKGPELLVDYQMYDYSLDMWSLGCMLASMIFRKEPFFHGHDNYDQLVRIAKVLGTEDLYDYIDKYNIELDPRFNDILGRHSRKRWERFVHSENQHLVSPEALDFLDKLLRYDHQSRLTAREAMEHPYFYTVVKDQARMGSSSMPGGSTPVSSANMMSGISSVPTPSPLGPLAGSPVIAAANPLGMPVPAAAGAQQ

SMILES | melting point | Ki [1]
CN(CCN)c1ccc(Nc2cc(NC3CC3)c3ncc(C#N)n3n2)cc1CS(C)(=O)=O (as salt: trifluoroacetic acid salt) [Example 48, 6-((4-((2-aminoethyl)(methyl)amino)-3-((methylsulfonyl)methyl)phenyl)amino)-8-(cyclopropylamino)imidazo[1,2-b]pyridazine-3-carbonitrile mono trifluoroacetic acid salt] | 121 to 124 °C | 
CN(CCN)c1ccc(Nc2nc(NC3CC3)c3ncc(C#N)n3n2)cc1CS(C)(=O)=O (as salt: trifluoroacetic acid salt) [Example 50, 2-((4-((2-aminoethyl)(methyl)amino)-3-((methylsulfonyl)methyl)phenyl)amino)-4-(cyclopropylamino)imidazo[2,1-f][1,2,4]triazine-7-carbonitrile mono trifluoroacetic acid salt] | 113 to 117 °C | 
CN(CCN)c1ccc(Nc2nc(NC3CC3)n3ncc(C#N)c3n2)cc1CS(C)(=O)=O (as salt: trifluoroacetic acid salt) [Example 52, 2-((4-((2-aminoethyl)(methyl)amino)-3-((methylsulfonyl)methyl)phenyl)amino)-4-(cyclopropylamino)pyrazolo[1,5-a][1,3,5]triazine-8-carbonitrile mono trifluoroacetic acid salt] | 55 to 59 °C | 
CN(CC1(N)CC1)c1ccc(Nc2cc(NC3CC3)n3ncc(C#N)c3n2)cc1CS(C)(=O)=O (as salt: trifluoroacetic acid salt) [Example 66, 5-((4-(((1-aminocyclopropyl)methyl)(methyl)amino)-3-((methylsulfonyl)methyl)phenyl)amino)-7-(cyclopropylamino)pyrazolo[1,5-a]pyrimidine-3-carbonitrile mono trifluoroacetic acid salt] | 185 to 189 °C | 
CN(CCN)c1ccc(Nc2cc(NC3CC3)c3ncc(C#N)n3n2)cc1C[S+](C)[O-] (racemic) (as salt: trifluoroacetic acid salt) [Example 47, (±)-6-((4-((2-Aminoethyl)(methyl)amino)-3-((methylsulfinyl)methyl)phenyl)amino)-8-(cyclopropylamino)imidazo[1,2-b]pyridazine-3-carbonitrile mono trifluoroacetic acid salt] | 91 to 94 °C | 
CS(=O)(=O)Cc1cc(Nc2cc(NC3CC3)n3ncc(C#N)c3n2)ccc1Cl [Example 2, 5-((4-Chloro-3-((methylsulfonyl)methyl)phenyl)amino)-7-(cyclopropylamino)pyrazolo[1,5-a]pyrimidine-3-carbonitrile] |  | < 2.5 nM
C[S@@+]([O-])Cc1cc(Nc2cc(NC3CC3)n3ncc(C#N)c3n2)ccc1Cl [Example 4, (R)(−)-5-((4-Chloro-3-((methylsulfinyl)methyl)phenyl)amino)-7-(cyclopropylamino)pyrazolo[1,5-a]pyrimidine-3-carbonitrile] |  | 2.5 to 10 nM
CS(=O)(=O)Cc1cc(Nc2cc(NC3CC3)n3ncc(C#N)c3n2)ccc1C#N [Example 9, 5-((4-Cyano-3-((methylsulfonyl)methyl)phenyl)amino)-7-(cyclopropylamino)pyrazolo[1,5-a]pyrimidine-3-carbonitrile] |  | < 2.5 nM
CN(CCN)c1ccc(Nc2cc(NC3CC3)n3ncc(C#N)c3n2)cc1CS(C)(=O)=O [Example 10, 5-((4-((2-Aminoethyl)(methyl)amino)-3-((methylsulfonyl)methyl)phenyl)amino)-7-(cyclopropylamino)pyrazolo[1,5-a]pyrimidine-3-carbonitrile mono trifluoroacetic acid salt] |  | < 2.5 nM
CS(=O)(=O)Cc1cc(Nc2cc(NC3CC3)n3ncc(C#N)c3n2)ccc1CCN [Example 11, 5-((4-(2-Aminoethyl)-3-((methylsulfonyl)methyl)phenyl)amino)-7-(cyclopropylamino)pyrazolo[1,5-a]pyrimidine-3-carbonitrile mono trifluoroacetic acid salt] |  | < 2.5 nM
C[S+]([O-])Cc1cc(Nc2cc(NC3CC3)n3ncc(C#N)c3n2)ccc1N1CC[C@@H](N)C1 (stereo partly drawn) [Example 22, 5-((4-((R)-3-Aminopyrrolidin-1-yl)-3-(((R,S)-methylsulfinyl)methyl)phenyl)amino)-7-(cyclopropylamino)pyrazolo[1,5-a]pyrimidine-3-carbonitrile mono trifluoroacetic acid salt] |  | < 2.5 nM
C[S+]([O-])Cc1cc(Nc2cc(NC3CC3)n3ncc(C#N)c3n2)ccc1N1CC[C@H](N)C1 (stereo partly drawn) [Example 23, 5-((4-((S)-3-Aminopyrrolidin-1-yl)-3-(((R,S)-methylsulfinyl)methyl)phenyl)amino)-7-(cyclopropylamino)pyrazolo[1,5-a]pyrimidine-3-carbonitrile mono trifluoroacetic acid salt] |  | < 2.5 nM
C[S+]([O-])Cc1cc(Nc2cc(NC3CC3)n3ncc(C#N)c3n2)ccc1N1CCC[C@@H](N)C1 (stereo partly drawn) [Example 24, 5-((4-((R)-3-Aminopiperidin-1-yl)-3-(((R,S)-methylsulfinyl)methyl)phenyl)amino)-7-(cyclopropylamino)pyrazolo[1,5-a]pyrimidine-3-carbonitrile mono trifluoroacetic acid salt] |  | < 2.5 nM
C[S+]([O-])Cc1cc(Nc2cc(NC3CC3)n3ncc(C#N)c3n2)ccc1N1CCC[C@H](N)C1 (stereo partly drawn) [Example 25, 5-((4-((S)-3-Aminopiperidin-1-yl)-3-(((R,S)-methylsulfinyl)methyl)phenyl)amino)-7-(cyclopropylamino)pyrazolo[1,5-a]pyrimidine-3-carbonitrile mono trifluoroacetic acid salt] |  | < 2.5 nM
CS(=O)(=O)Cc1cc(Nc2cc(NC3CC3)n3ncc(C#N)c3n2)ccc1N1CC[C@H](N)C1 [Example 29, (S)-5-((4-(3-aminopyrrolidin-1-yl)-3-((methylsulfonyl)methyl)phenyl)amino)-7-(cyclopropylamino)pyrazolo[1,5-a]pyrimidine-3-carbonitrile mono trifluoroacetic acid salt] |  | < 2.5 nM
CN(C)c1ccc(Nc2cc(NC3CC3)n3ncc(C#N)c3n2)cc1CS(C)(=O)=O [Example 34, 7-(Cyclopropylamino)-5-((4-(dimethylamino)-3-((methylsulfonyl)methyl)phenyl)amino)pyrazolo[1,5-a]pyrimidine-3-carbonitrile] |  | < 2.5 nM
CS(=O)(=O)Cc1cc(Nc2cc(NC3CC3)n3ncc(C#N)c3n2)ccc1C1(CN)CC1 [Example 39, 5-((4-(1-(Aminomethyl)cyclopropyl)-3-((methylsulfonyl)methyl)phenyl)amino)-7-(cyclopropylamino)pyrazolo[1,5-a]pyrimidine-3-carbonitrile mono trifluoroacetic acid salt] |  | < 2.5 nM
CS(=O)(=O)Cc1cc(Nc2cc(NC3CC3)n3ncc(C#N)c3n2)ccc1N1CC(N)C1 [Example 41, 5-((4-(3-Aminoazetidin-1-yl)-3-((methylsulfonyl)methyl)phenyl)amino)-7-(cyclopropylamino)pyrazolo[1,5-a]pyrimidine-3-carbonitrile] |  | 2.5 to 10 nM
CS(=O)(=O)Cc1cc(Nc2cc(NC3CC3)n3ncc(C#N)c3n2)ccc1N1CC(CN)C1 [Example 43, 5-((4-(3-(Aminomethyl)azetidin-1-yl)-3-((methylsulfonyl)methyl)phenyl)amino)-7-(cyclopropylamino)pyrazolo[1,5-a]pyrimidine-3-carbonitrile] |  | < 2.5 nM
CN(c1ccc(Nc2cc(NC3CC3)n3ncc(C#N)c3n2)cc1CS(C)(=O)=O)C1CNC1 [Example 45, 5-((4-(Azetidin-3-yl(methyl)amino)-3-((methylsulfonyl)methyl)phenyl)amino)-7-(cyclopropylamino)pyrazolo[1,5-a]pyrimidine-3-carbonitrile] |  | 2.5 to 10 nM
CN(CCN)c1ccc(Nc2cc(NC3CC3)c3ncc(C#N)n3n2)cc1CS(C)(=O)=O [Example 48, 6-((4-((2-aminoethyl)(methyl)amino)-3-((methylsulfonyl)methyl)phenyl)amino)-8-(cyclopropylamino)imidazo[1,2-b]pyridazine-3-carbonitrile mono trifluoroacetic acid salt] |  | 2.5 to 10 nM
CN(CCN)c1ccc(Nc2nc(NC3CC3)c3ncc(C#N)n3n2)cc1CS(C)(=O)=O [Example 50, 2-((4-((2-aminoethyl)(methyl)amino)-3-((methylsulfonyl)methyl)phenyl)amino)-4-(cyclopropylamino)imidazo[2,1-f][1,2,4]triazine-7-carbonitrile mono trifluoroacetic acid salt] |  | 2.5 to 10 nM
CN(CCN)c1ccc(Nc2nc(NC3CC3)n3ncc(C#N)c3n2)cc1CS(C)(=O)=O [Example 52, 2-((4-((2-aminoethyl)(methyl)amino)-3-((methylsulfonyl)methyl)phenyl)amino)-4-(cyclopropylamino)pyrazolo[1,5-a][1,3,5]triazine-8-carbonitrile mono trifluoroacetic acid salt] |  | 2.5 to 10 nM
CN(CC1(N)CC1)c1ccc(Nc2cc(NC3CC3)n3ncc(C#N)c3n2)cc1CS(C)(=O)=O [Example 66, 5-((4-(((1-aminocyclopropyl)methyl)(methyl)amino)-3-((methylsulfonyl)methyl)phenyl)amino)-7-(cyclopropylamino)pyrazolo[1,5-a]pyrimidine-3-carbonitrile mono trifluoroacetic acid salt] |  | < 2.5 nM
